# Test system: diarrhea-predominant IBS subjects
# Assay: 3007 Study: open-label 52-week safety study, adverse events and withdrawals
# Conditions: P/C group
structure (smiles),measurement,value
"Cc1nccn1C[C@H]1CCc2c(c3cccc4c3n2CCC4)C1=O [cilansetron, (R)-(−)-4,5,6,8,9,10-hexahydro-10-[(2-methyl-1H-imidazol-1-yl)methyl]-11H-pyrido-[3,2,1-jk]-carbazol-11-one]",TEAE: Anaemias NEC,1 (<1%) n (%)
same,TEAE: Angina Pectoris,0 n (%)
same,TEAE: Anorexia,1 (<1%) n (%)
same,TEAE: Anxiety,5 (2%) n (%)
same,TEAE: Anxiety Aggravated,1 (<1%) n (%)
same,TEAE: Anxiety Symptoms,7 (3%) n (%)
same,TEAE: Apocrine and Eccrine Gland Disorders,3 (1%) n (%)
same,TEAE: Appetite Disorders,1 (<1%) n (%)
same,TEAE: Arrhythmia NOS,0 n (%)
same,TEAE: Asthenic Conditions,7 (3%) n (%)
same,TEAE: Asthma Aggravated,0 n (%)
same,TEAE: Asthma NOS,1 (<1%) n (%)
same,TEAE: Atopic Disorders,1 (<1%) n (%)
same,TEAE: Atrial Fibrillation,0 n (%)
same,TEAE: Atrioventricular Block First Degree,0 n (%)
same,TEAE: Basal Cell Carcinoma,4 (1%) n (%)
same,TEAE: Behaviour and Socialisation Disturbances,1 (<1%) n (%)
same,TEAE: Benign Ovarian Tumour*,1 (<1%) n (%)
same,TEAE: Biliary Tract Disorder NOS,1 (<1%) n (%)
same,TEAE: Binocular Eye Movement Disorder NOS,1 (<1%) n (%)
same,TEAE: Bladder Disorders NEC,1 (<1%) n (%)
same,TEAE: Bladder Infections and Inflammations,1 (<1%) n (%)
same,TEAE: Bladder Prolapse,1 (<1%) n (%)
same,TEAE: Bladder and Urethral Symptoms,1 (<1%) n (%)
same,TEAE: Blood and Lymphatic System Disorders,2 (<1%) n (%)
same,TEAE: Bone Neoplasm Malignant,0 n (%)
same,TEAE: Bone Neoplasms Malignant (Excl Sarcomas),0 n (%)
same,TEAE: Bradyarrhythmia,1 (<1%) n (%)
same,TEAE: Breast Calcifications*,1 (<1%) n (%)
same,TEAE: Breast Cancer NOS*,2 (1%) n (%)
same,TEAE: Breast Disorder NOS*,1 (<1%) n (%)
same,TEAE: Breast Disorders NEC*,4 (2%) n (%)
same,TEAE: Breast Mass NOS*,2 (1%) n (%)
same,TEAE: Breast and Nipple Neoplasms Malignant*,2 (1%) n (%)
same,TEAE: Breath Sounds Decreased,0 n (%)
same,TEAE: Breathing Abnormalities,1 (<1%) n (%)
same,TEAE: Bronchospasm and Obstruction,1 (<1%) n (%)
same,"TEAE: Bruising, Ecchymosis and Purpura",0 n (%)
same,TEAE: Bundle Branch Block Right,0 n (%)
same,TEAE: Calculus Renal NOS,0 n (%)
same,TEAE: Calculus Ureteric,0 n (%)
same,TEAE: Cardiac Conduction Disorders,0 n (%)
same,TEAE: Cardiac Disorders,6 (2%) n (%)
same,TEAE: Cardiac Fibrillation NOS,1 (<1%) n (%)
same,TEAE: Cardiac Flutter,1 (<1%) n (%)
same,TEAE: Cardiac Signs and Symptoms NEC,2 (<1%) n (%)
same,TEAE: Cataract Unilateral,0 n (%)
same,TEAE: Cataracts (Excl Congenital),1 (<1%) n (%)
same,TEAE: Cerumen Impaction,0 n (%)
same,TEAE: Chest Discomfort,1 (<1%) n (%)
same,TEAE: Chest Pain,4 (1%) n (%)
same,TEAE: Chest Tightness,0 n (%)
same,TEAE: Cholecystitis and Cholelithiasis,0 n (%)
same,TEAE: Cholelithiasis,0 n (%)
same,"TEAE: Congenital, Familial and Genetic Disorders",1 (<1%) n (%)
same,"TEAE: Conjunctival Infections, Irritations and Inflammations",0 n (%)
same,TEAE: Conjunctivitis,0 n (%)
same,TEAE: Conjunctivitis Allergic,0 n (%)
same,TEAE: Contusion,2 (<1%) n (%)
same,TEAE: Cough,6 (2%) n (%)
same,TEAE: Coughing and Associated Symptoms,6 (2%) n (%)
same,TEAE: Cyst NOS,0 n (%)
same,TEAE: Cystitis Interstitial,1 (<1%) n (%)
same,TEAE: Dacryostenosis Acquired,0 n (%)
same,TEAE: Deafness NOS,0 n (%)
same,TEAE: Dehydration,1 (<1%) n (%)
same,TEAE: Depression,5 (2%) n (%)
same,TEAE: Depression Aggravated,1 (<1%) n (%)
same,TEAE: Depressive Disorders,6 (2%) n (%)
same,TEAE: Dermal and Epidermal Conditions NEC,4 (1%) n (%)
same,TEAE: Dermatitis Allergic,1 (<1%) n (%)
same,TEAE: Dermatitis Ascribed to Specific Agent,1 (<1%) n (%)
same,TEAE: Dermatitis Contact,1 (<1%) n (%)
same,TEAE: Dermatitis Medicamentosa,1 (<1%) n (%)
same,TEAE: Dermatitis NOS,1 (<1%) n (%)
same,TEAE: Dermatitis and Eczema,4 (1%) n (%)
same,TEAE: Dermographism,1 (<1%) n (%)
same,TEAE: Diabetes Mellitus (Incl Subtypes),1 (<1%) n (%)
same,TEAE: Diabetes Mellitus Aggravated,1 (<1%) n (%)
same,TEAE: Diabetes Mellitus Non-Insulin-Dependent,0 n (%)
same,TEAE: Disturbances in Initiating and Maintaining Sleep,0 n (%)
same,TEAE: Drug Hypersensitivity,0 n (%)
same,TEAE: Dry Eye NOS,0 n (%)
same,TEAE: Dysfunctional Uterine Bleeding*,0 n (%)
same,TEAE: Dyshidrosis,1 (<1%) n (%)
